In patent US6706740B2, “Fungicidal heterocyclic aromatic amides and their compositions, methods of use and preparation” (Dow AgroSciences LLC, priority 1999, dated 2004):
Read-outs that look alike come from different tables or passages of the source.

Tests used:
[1] = test system: Magnaporthe grisea (Pyricularia oryzae—PYRIOR); test: microbe, parasite or virus in culture; assay type: cell-based; settings: Pyricularia oryzae, read-out: PYRIOR in vitro Growth Inhibition
[2] = test system: Rhizoctonia solani (RHIZSO); test: microbe, parasite or virus in culture; assay type: cell-based; settings: Rhizoctonia solani, read-out: RHIZSO in vitro Growth Inhibition
[3] = test system: Mycosphaerella graminicola (Septoria tritici—SEPTTR); test: In vitro fungal growth inhibition, Mycosphaerella graminicola (SEPTTR); assay type: cell-based; settings: Zymoseptoria tritici, read-out: SEPTTR in vitro Growth Inhibition
[4] = test system: Stagonospora nodorum (Leptosphaeria nodorum—LEPTNO); test: In vitro fungal growth inhibition, Stagonospora nodorum (LEPTNO); assay type: cell-based; settings: Leptosphaeria, read-out: LEPTNO in vitro Growth Inhibition
[5] = test system: Ustilago maydis (USTIMA); test: microbe, parasite or virus in culture; assay type: cell-based; settings: Mycosarcoma maydis, read-out: USTIMA in vitro Growth Inhibition
[6] = test system: Phytophthora infestans (PHYTIN); test: microbe, parasite or virus in culture; assay type: cell-based; settings: Phytophthora infestans, read-out: PHYTIN in vitro Growth Inhibition
[7] = test system: Phytophthora infestans—PHYTIN; test: whole plant or invertebrate; assay type: in vivo; settings: Phytophthora, in Solanum lycopersicum, 24 h, read-out: PHYTIN in vivo 1 Day Protectant
[8] = test system: Puccinia recondita—PUCCRT; test: Brown Rust of Wheat, in vivo whole plant, 24 Hour Protectant; settings: for pest or weed control at 100 ppm: Puccinia, read-out: PUCCRT in vivo 1 Day Protectant
[9] = test system: Erysiphe graminis—ERYSGT; test: Powdery Mildew of Wheat, in vivo whole plant, 24 Hour Protectant; settings: for pest or weed control at 100 ppm: Erysiphe, read-out: ERYSGT in vivo 1 Day Protectant
[10] = test system: Septoria tritici—SEPTTR; test: Leaf Blotch of Wheat, in vivo whole plant, 24 Hour Protectant; settings: for pest or weed control at 100 ppm: Zymoseptoria tritici, 24 h, read-out: SEPTTR in vivo 1 Day Protectant
[11] = test system: Leptosphaeria nodorum—LEPTNO; test: Glume Blotch of Wheat, in vivo whole plant, 24 Hour Protectant; settings: for pest or weed control at 100 ppm: Leptosphaeria, read-out: LEPTNO in vivo 1 Day Protectant
[12] = 100 ppm spray, wheat, 24 hour protectant, % control of fungal infection vs untreated plants
[13] = 100 ppm spray, 24 hour protectant, wheat, control of fungal infection vs untreated plants
[14] = 100 ppm spray, wheat, 24 hour protectant, control of fungal infection vs untreated plants
[15] = wheat plants sprayed at 100 ppm, inoculated after 24 hours, control of fungal infection vs untreated plants

| Structure (SMILES) | inhibition at 25 ppm [1] [%] | inhibition at 25 ppm [2] [%] | inhibition at 25 ppm ([3]; 25 ppm in growth medium) [%] | inhibition at 25 ppm ([4]; 25 ppm in growth medium) [%] | inhibition at 25 ppm [5] [%] | inhibition at 25 ppm [6] [%] | pest or weed control at 100 ppm [7] [%] | melting point [°C] | pest or weed control at 100 ppm [8, 13] [%] | pest or weed control at 100 ppm [9, 13] [%] | pest or weed control at 100 ppm [10, 13] [%] | pest or weed control at 100 ppm [11, 13] [%] | also measured |
| --- | --- | --- | --- | --- | --- | --- | --- | --- | --- | --- | --- | --- | --- |
| COCCC(=O)Oc1c(OC)ccnc1C(=O)Nc1cccc(C(=O)Nc2ccc(C(F)(F)F)cc2)c1 [Compound 714] | < 80 | < 80 | < 80 | < 80 | < 80 | < 80 | < 25 | 187 to 189 |  |  |  |  | pest or weed control at 100 ppm [8, 12]: < 25%; pest or weed control at 100 ppm [9, 12]: < 25%; pest or weed control at 100 ppm [10, 12]: 25 to 74%; pest or weed control at 100 ppm [11, 12]: 25 to 74% |
| COCCC(=O)Oc1c(OC)ccnc1C(=O)N[C@H]1COC(=O)[C@H](Cc2ccccc2)[C@@H](OC(=O)C(C)(C)C)[C@H](C)OC1=O [Compound 703] | < 80 | < 80 | < 80 | > 80 | < 80 | < 80 | < 25 | 144 to 145 |  |  |  |  | PUCCRT in vivo 1 Day Protectant [8, 12]: + +; ERYSGT in vivo 1 Day Protectant [9, 12]: + +; SEPTTR in vivo 1 Day Protectant [10, 12]: + +; LEPTNO in vivo 1 Day Protectant [11, 12]: + + |
| CCC(=O)Oc1c(OC)ccnc1C(=O)N[C@H]1COC(=O)[C@H](Cc2ccccc2)[C@@H](OC(=O)C(C)C)[C@H](C)OC1=O [Compound 598] | < 80 | < 80 | > 80 | > 80 | < 80 | < 80 | < 25 | 171 to 172 |  |  |  |  | PUCCRT in vivo 1 Day Protectant [8, 12]: + +; ERYSGT in vivo 1 Day Protectant [9, 12]: + +; SEPTTR in vivo 1 Day Protectant [10, 12]: + +; LEPTNO in vivo 1 Day Protectant [11, 12]: + + |
| COc1ccnc(C(=O)N[C@H]2COC(=O)[C@H](Cc3ccccc3)[C@@H](OC(=O)C(C)C)[C@H](C)OC2=O)c1OC(=O)CC(C)(C)C [Compound 610] | < 80 | < 80 | < 80 | > 80 | < 80 | < 80 | < 25 | 151 to 152 |  |  |  |  | pest or weed control at 100 ppm [8, 12]: 25 to 74%; pest or weed control at 100 ppm [9, 12]: < 25%; pest or weed control at 100 ppm [10, 12]: < 25%; pest or weed control at 100 ppm [11, 12]: < 25% |
| COc1ccnc(C(=O)NC2CC(C)(C)CC(C)(C(=O)c3ccccc3)C2)c1O (stereo not drawn) [Compound 260] | < 80 | < 80 | < 80 | > 80 | < 80 | < 80 | < 25 | 147 to 149 | < 25 | < 25 | 25 to 74 | 25 to 74 |  |
| COc1ccnc(C(=O)Nc2ccc(OC3CC(C)(C)OC(C)(C)C3)cc2)c1O [Compound 459] | < 80 | < 80 | < 80 | < 80 | < 80 | < 80 | < 25 | 161 to 163 |  |  |  |  | pest or weed control at 100 ppm [8, 14]: 25 to 74%; pest or weed control at 100 ppm [9, 14]: 25 to 74%; pest or weed control at 100 ppm [10, 14]: 25 to 74%; LEPTNO in vivo 1 Day Protectant [11, 14]: + + |
| COCc1cc(Oc2ccc(C(F)(F)F)cc2)ccc1NC(=O)c1nccc(OC)c1O [Compound 426] | > 80 | > 80 | > 80 | > 80 | > 80 | > 80 | 25 to 74 | 125 to 127 |  |  |  |  | pest or weed control at 100 ppm [8, 14]: 25 to 74%; pest or weed control at 100 ppm [9, 14]: 25 to 74%; pest or weed control at 100 ppm [10, 14]: 25 to 74%; pest or weed control at 100 ppm [11, 14]: < 25% |
| Cc1nc(O)c(C(=O)N[C@H]2COC(=O)[C@H](Cc3ccccc3)[C@@H](OC(=O)C(C)C)[C@H](C)OC2=O)nc1C [Compound 536] | < 80 | < 80 |  |  | < 80 | < 80 | < 25 | 80 to 83 |  |  |  |  | inhibition at 25 ppm ([3]; 25 ppm in the growth medium): > 80%; inhibition at 25 ppm ([4]; 25 ppm in the growth medium): < 80%; pest or weed control at 100 ppm [8, 15]: 25 to 74%; pest or weed control at 100 ppm [9, 15]: < 25%; pest or weed control at 100 ppm [10, 15]: 25 to 74%; LEPTNO in vivo 1 Day Protectant [11, 15]: + + |
| COc1ccnc(C(=O)NC2CC(C)(C)CC(C)(C)C2)c1O [Compound 250] | < 80 | < 80 | < 80 | > 80 | < 80 | > 80 | 25 to 74 | 104 to 106 | 25 to 74 | < 25 | < 25 | 25 to 74 |  |
| COc1ccnc(C(=O)NC2CC3OC2C(C)C(OC(=O)C(C)C)C3C)c1O (stereo not drawn) [Compound 320] | < 80 | < 80 | < 80 | < 80 | < 80 | < 80 | < 25 | 108.5 to 109.5 | < 25 | < 25 | 25 to 74 | 25 to 74 |  |
